According to DBAASP:
In brackets after ≈: the same amount, converted by molar mass.

Legend:
Assay in all cases: ≥ marks a high value that may be exact or a test limit, other limits are often not marked, values filed in µg/mL are converted to µM
[1] = system: Bacillus cereus
[2] = system: Escherichia coli
[3] = system: Candida albicans ATCC 90028
[4] = system: Escherichia coli ATCC 25922
[5] = system: Staphylococcus aureus ATCC 25923
[6] = system: Staphylococcus aureus
[7] = system: Acinetobacter baumannii ATCC 19606
[8] = system: Pseudomonas aeruginosa ATCC 27853
[9] = system: Staphylococcus aureus ATCC 29213
[10] = system: Bacillus subtilis ATCC 6633
[11] = system: Klebsiella pneumoniae ATCC 700603
[12] = system: Staphylococcus epidermidis ATCC 12228
[13] = system: Candida albicans ATCC 2002
[14] = system: Staphylococcus aureus ATCC 33591
[15] = system: Candida albicans ATCC 10231

Question: For CSCC[C@H](NC(=O)[C@H](CO)NC(=O)[C@H](Cc1ccccc1)NC(=O)[C@@H](NC(=O)[C@H](CO)NC(=O)[C@@H]1CCCN1C(=O)[C@@H](NC(=O)[C@@H](NC(=O)[C@H](CCCCN)NC(=O)[C@H](CO)NC(=O)[C@H](C)NC(=O)[C@H](CC(C)C)NC(=O)[C@H](CO)NC(=O)[C@H](Cc1ccccc1)NC(=O)[C@H](CC(C)C)NC(=O)[C@H](C)N)C(C)C)C(C)C)C(C)C)C(=O)N[C@H](C(=O)N[C@H](C(=O)N[C@@H](CCCCN)C(=O)N[C@@H](CCCCN)C(=O)O)[C@@H](C)O)C(C)C [ALFSLASKVVPSVFSMVTKK], which MIC [1] is on record?
Answer: The MIC was at least 120 µM.

Question: What about the MIC [2] of the same molecule?
Answer: Its MIC is over 120 µM.

Question: With CC[C@H](C)[C@H](NC(=O)[C@H](C)NC(=O)CNC(=O)[C@H](CC(C)C)NC(=O)[C@@H](N)Cc1ccccc1)C(=O)N[C@@H](C)C(=O)NCC(=O)N[C@H](C(=O)N[C@@H](C)C(=O)N[C@@H](C)C(=O)N[C@@H](CCCCN)C(=O)N[C@@H](Cc1ccccc1)C(=O)N[C@@H](CC(C)C)C(=O)N1CCC[C@H]1C(=O)N[C@@H](CCCCN)C(=O)N[C@H](C(=O)N[C@@H](Cc1ccccc1)C(=O)N[C@H]1CSSC[C@@H](C(=O)O)NC(=O)[C@H](CCCCN)NC(=O)[C@H](CCCCN)NC(=O)[C@H]([C@@H](C)O)NC(=O)[C@H]([C@@H](C)CC)NC(=O)[C@H](Cc2ccccc2)NC1=O)C(C)C)C(C)C [FLGAIAGVAAKFLPKVFCFITKKC] as the molecule, how does the MIC [3] read?
Answer: Its MIC is 3 µM (≈ 7.71 µg/mL).

Question: What about the MIC [4] of the same molecule?
Answer: Its MIC is 25 µM (≈ 64.3 µg/mL).

Question: And the MIC [5]?
Answer: The MIC was 3 µM (≈ 7.71 µg/mL).

Question: For CC(C)C[C@H](NC(=O)[C@@H](N)Cc1ccccc1)C(=O)NCC(=O)N[C@@H](CCCCN)C(=O)N[C@H](C(=O)N[C@@H](Cc1ccccc1)C(=O)N[C@@H](CCCCN)C(=O)NCC(=O)N[C@H](C(=O)N[C@@H](CO)C(=O)N[C@@H](CCCCN)C(=O)N[C@H](C(=O)N[C@@H](Cc1ccccc1)C(=O)N1CCC[C@H]1C(=O)N[C@@H](C)C(=O)N[C@H](C(=O)N[C@@H](Cc1ccccc1)C(=O)NCC(=O)N[C@@H](CCCCN)C(=O)N[C@H](C(=O)O)C(C)C)C(C)C)C(C)C)C(C)C)C(C)C [FLGKVFKGVSKVFPAVFGKV], which MIC [1] is on record?
Answer: The MIC was at least 59.4 µM.

Question: And the MIC [2]?
Answer: The MIC was 59.4 µM (≈ 128 µg/mL).

Question: And the MIC [6]?
Answer: The MIC was over 59.4 µM.

Question: What does the source list for CC(C)C[C@H](NC(=O)[C@@H](N)Cc1ccccc1)C(=O)NCC(=O)N[C@@H](CCCCN)C(=O)N[C@H](C(=O)N[C@@H](Cc1ccccc1)C(=O)N[C@@H](CCCCN)C(=O)N[C@@H](CCCCN)C(=O)N[C@@H](C)C(=O)N[C@@H](CO)C(=O)N[C@@H](CCCCN)C(=O)N[C@H](C(=O)N[C@@H](Cc1ccccc1)C(=O)N1CCC[C@H]1C(=O)N[C@@H](C)C(=O)N[C@H](C(=O)N[C@H](C(=O)NCC(=O)N[C@@H](CCCCN)C(=O)N[C@H](C(=O)O)C(C)C)C(C)C)C(C)C)C(C)C)C(C)C [FLGKVFKKASKVFPAVVGKV]?
Answer: MIC [1]: ≥ 59.5 µM; MIC [2]: 59.5 µM (≈ 128 µg/mL); MIC [6]: > 59.5 µM

Question: What does the source list for CC(C)C[C@H](NC(=O)[C@H](CCCCN)NC(=O)[C@@H](NC(=O)[C@@H](NC(=O)[C@@H](NC(=O)CNC(=O)[C@H](CC(C)C)NC(=O)[C@@H](N)Cc1ccccc1)C(C)C)C(C)C)C(C)C)C(=O)N[C@@H](C)C(=O)N[C@@H](CO)C(=O)N[C@@H](CCCCN)C(=O)N[C@H](C(=O)N[C@@H](Cc1ccccc1)C(=O)N1CCC[C@H]1C(=O)N[C@@H](C)C(=O)N[C@H](C(=O)N[C@@H](Cc1ccccc1)C(=O)NCC(=O)N[C@@H](CCCCN)C(=O)N[C@H](C(=O)O)C(C)C)C(C)C)C(C)C [FLGVVVKLASKVFPAVFGKV]?
Answer: MIC [1]: 15.2 µM (≈ 32 µg/mL); MIC [2]: > 122 µM; MIC [6]: 7.6 µM (≈ 16 µg/mL)

Question: With CC(C)C[C@H](NC(=O)[C@H](CC(C)C)NC(=O)[C@H](CCCCN)NC(=O)[C@H](CCCCN)NC(=O)[C@H](CC(C)C)NC(=O)[C@H](Cc1cnc[nH]1)NC(=O)[C@H](CCCCN)NC(=O)[C@H](CC(C)C)NC(=O)[C@@H](N)Cc1ccccc1)C(N)=O [FLKHLKKLL] as the molecule, how does the MIC [7] read?
Answer: The MIC was 112 µM (≈ 128 µg/mL).

Question: And the MIC [4]?
Answer: Its MIC is 56.2 µM (≈ 63.9 µg/mL).

Question: And the MIC [8]?
Answer: Its MIC is 7.02 µM (≈ 7.99 µg/mL).

Question: What about the MIC [5] of the same molecule?
Answer: Its MIC is 112 µM (≈ 128 µg/mL).

Question: How did the MIC [3] turn out when CC[C@H](C)[C@H](NC(=O)[C@H](CCCN=C(N)N)NC(=O)[C@H](CCC(N)=O)NC(=O)[C@@H](NC(=O)[C@@H](NC(=O)[C@H](CCCN=C(N)N)NC(=O)[C@@H](N)CCCCN)[C@@H](C)CC)C(C)C)C(=O)N[C@@H](CCCCN)C(=O)N[C@@H](CC(=O)O)C(=O)N[C@@H](Cc1ccccc1)C(=O)N[C@@H](C)C(=O)N[C@@H](CCCN=C(N)N)C(=O)O [KRIVQRIKDFAR] was run?
Answer: The MIC was at least 40 µM.

Question: What about the MIC [4] of the same molecule?
Answer: Its MIC is 20 µM (≈ 30.6 µg/mL).

Question: What about the MIC [8] of the same molecule?
Answer: The MIC was 40 µM (≈ 61.2 µg/mL).

Question: What about the MIC [9] of the same molecule?
Answer: The MIC was 40 µM (≈ 61.2 µg/mL).

Question: For CC(=O)N[C@@H](CC(C)C)C(=O)N[C@@H](Cc1ccccc1)C(=O)N[C@@H](CCCCN)C(=O)N[C@@H](CCCCN)C(=O)N[C@@H](CC(N)=O)C(=O)N[C@@H](CCCCN)C(=O)N[C@@H](CC(C)C)C(=O)N[C@@H](Cc1c[nH]c2ccccc12)C(=O)N[C@@H](Cc1ccccc1)C(=O)N[C@@H](CCCCN)C(=O)N[C@@H](CO)C(=O)N[C@@H](CCCCN)C(=O)N[C@@H](CCCCN)C(=O)N[C@@H](Cc1c[nH]c2ccccc12)C(=O)N[C@@H](CC(C)C)C(N)=O [LFKKNKLWFKSKKWL], which MIC [10] is on record?
Answer: The MIC was 6.4 µM (≈ 13 µg/mL).

Question: What about the MIC [4] of the same molecule?
Answer: The MIC was 50 µM (≈ 102 µg/mL).

Question: And the MIC [11]?
Answer: The MIC was 50 µM (≈ 102 µg/mL).

Question: What about the MIC [8] of the same molecule?
Answer: Its MIC is 50 µM (≈ 102 µg/mL).

Question: And the MIC [5]?
Answer: Its MIC is 50 µM (≈ 102 µg/mL).

Question: What about the MIC [12] of the same molecule?
Answer: Its MIC is 25 µM (≈ 50.9 µg/mL).

Question: Which MIC [1] does the source give for CC[C@H](C)[C@H](NC(=O)[C@H](CC(C)C)NC(=O)[C@H](CO)NC(=O)[C@@H]1CCCN1C(=O)[C@@H](NC(=O)[C@@H](NC(=O)[C@H](CCCCN)NC(=O)[C@H](CO)NC(=O)[C@H](C)NC(=O)[C@@H](NC(=O)[C@H](CO)NC(=O)[C@H](Cc1ccccc1)NC(=O)[C@@H](NC(=O)[C@@H](NC(=O)[C@@H]1CCCN1)C(C)C)C(C)C)C(C)C)C(C)C)C(C)C)C(=O)N[C@@H](CO)C(=O)N[C@@H](C)C(=O)N[C@@H](CC(C)C)C(=O)N[C@@H](CCCCN)C(=O)N[C@@H](CCCN=C(N)N)C(=O)O [PVVFSVASKVVPSLISALKR] here?
Answer: Its MIC is at least 122 µM.

Question: And the MIC [2]?
Answer: The MIC was over 122 µM.

Question: With CC[C@H](C)[C@H](NC(=O)[C@@H](NC(=O)[C@@H](NC(=O)[C@@H]1CCCN1C(=O)[C@H](Cc1c[nH]c2ccccc12)NC(=O)[C@H](Cc1ccccc1)NC(=O)[C@H](CCCN=C(N)N)NC(=O)[C@H](CCCCN)NC(=O)[C@@H](NC(=O)[C@@H](N)CCCN=C(N)N)[C@@H](C)CC)C(C)C)C(C)C)C(=O)N[C@@H](CCCN=C(N)N)C(=O)N[C@H](C(=O)N[C@H](C(=O)N[C@H](C(=O)O)C(C)C)C(C)C)[C@@H](C)O [RIKRFWPVVIRTVV] as the molecule, how does the MIC [13] read?
Answer: Its MIC is at least 84.8 µM.

Question: For CC[C@H](C)[C@H](NC(=O)[C@H](CCC(N)=O)NC(=O)[C@H](CCSC)NC(=O)[C@H](CCC(N)=O)NC(=O)[C@@H](NC(=O)[C@H](CCCCN)NC(=O)[C@H](Cc1ccccc1)NC(=O)[C@H](Cc1c[nH]c2ccccc12)NC(=O)[C@@H](N)CCCN=C(N)N)[C@@H](C)CC)C(=O)N[C@@H](CCCN=C(N)N)C(=O)N[C@@H](CCCN=C(N)N)C(=O)N[C@@H](Cc1c[nH]c2ccccc12)C(=O)N[C@@H](CCCCN)C(=O)N[C@@H](CC(N)=O)C(=O)N[C@@H](CCCCN)C(=O)N[C@@H](CCCCN)C(N)=O [RWFKIQMQIRRWKNKK], which MIC [4] is on record?
Answer: Its MIC is 32 µM (≈ 71.9 µg/mL).

Question: What about the MIC [14] of the same molecule?
Answer: The MIC was at least 64 µM.

Question: Which MIC [1] does the source give for CC[C@H](C)[C@H](NC(=O)[C@@H](NC(=O)[C@H](CO)NC(=O)[C@@H]1CCCN1C(=O)[C@@H](NC(=O)[C@@H](NC(=O)[C@H](CCCCN)NC(=O)[C@H](CO)NC(=O)[C@H](C)NC(=O)[C@@H](NC(=O)CNC(=O)[C@H](Cc1ccccc1)NC(=O)[C@@H](NC(=O)[C@@H](NC(=O)[C@@H](N)CO)C(C)C)C(C)C)C(C)C)C(C)C)C(C)C)C(C)C)C(=O)NCC(=O)N[C@@H](CCCCN)C(=O)N[C@H](C(=O)N[C@@H](CCCCN)C(=O)N[C@H](C(=O)O)[C@@H](C)O)C(C)C [SVVFGVASKVVPSVIGKVKT] here?
Answer: Its MIC is at least 128 µM.

Question: What about the MIC [2] of the same molecule?
Answer: The MIC was over 128 µM.

Question: How did the MIC [1] turn out when CC[C@H](C)[C@H](NC(=O)[C@H](CC(C)C)NC(=O)[C@H](CO)NC(=O)[C@@H]1CCCN1C(=O)[C@@H](NC(=O)[C@@H](NC(=O)[C@H](CCCCN)NC(=O)[C@H](CO)NC(=O)[C@H](C)NC(=O)[C@@H](NC(=O)[C@H](CCCN=C(N)N)NC(=O)CNC(=O)[C@@H](NC(=O)[C@@H](N)C(C)C)C(C)C)C(C)C)C(C)C)C(C)C)C(=O)NCC(=O)N[C@@H](CC(C)C)C(=O)N[C@@H](Cc1ccccc1)C(=O)N[C@H](C(=O)N[C@H](C(=O)N[C@@H](CCCCN)C(=O)O)[C@@H](C)O)[C@@H](C)O [VVGRVASKVVPSLIGLFTTK] was run?
Answer: The MIC was at least 124 µM.

Question: And the MIC [2]?
Answer: The MIC was over 124 µM.

Question: For CC[C@H](C)[C@H](NC(=O)[C@H](CC(C)C)NC(=O)[C@H](CC(C)C)NC(=O)CNC(=O)[C@H](CCCCN)NC(=O)[C@H](CC(C)C)NC(=O)[C@H](CCCCN)NC(=O)[C@@H]1CCCN1C(=O)[C@H](CC(C)C)NC(=O)[C@H](CC(C)C)NC(=O)[C@H](CC(C)C)NC(=O)[C@H](CCCCN)NC(=O)[C@H](CC(C)C)NC(=O)[C@H](CC(C)C)NC(=O)[C@H](CCCCN)NC(=O)[C@@H](N)Cc1ccc(O)cc1)C(=O)N[C@@H](CCCCN)C(=O)N[C@@H](CC(C)C)C(N)=O [YKLLKLLLPKLKGLLIKL], which MIC [15] is on record?
Answer: Its MIC is 77.6 µM (≈ 164 µg/mL).

Question: And the MIC [8]?
Answer: Its MIC is 9.39 µM (≈ 19.8 µg/mL).

Question: And the MIC [9]?
Answer: Its MIC is 2.32 µM (≈ 4.9 µg/mL).
